Laboratory results from patent US20260364175A1, “COMPOSITIONS FOR DRUG ADMINISTRATION” (Aegis Therapeutics, LLC, priority 2018, published 2026).
“And” between values parts separate entries of the source, which are not always exact repeats. Equal entries are not always repeated. Structures can show the parent of a compound that is named as a salt.

Assays:
[1] = Octreotide pharmacokinetics after s.c. and oral delivery; details: for CL/F: po; for t1/2 1: first peak; for t1/2 2: second peak
Experimental: C prior to administration. […] Death is confirmed by cervical dislocation. […] Euthanasia is confirmed by cervical dislocation.
Pharmacokinetic analyses is carried out as follows.
Serum half-life (t1/2) is determined as follows.

blood glucose [2] = experiment: Ocular administration of insulin plus absorption enhancer, blood glucose in anesthetized rats; assay type: in vivo, rat (male Sprague-Dawley); details: for effect on blood glucose / ocular insulin absorption: 0.5% enhancer with 0.2% insulin eye drops; for Blood Glucose Concentration: 0.5% surfactant, insulin eye drops; for effect on ocular insulin absorption (alkyl chain length comparison): alkylmaltosides with insulin eye drops
blood glucose [3] = experiment: Ocular administration of glucagon plus surfactant, blood glucose in rats; assay type: in vivo, rat; details: for Blood Glucose Concentration: 0.5% surfactant, glucagon eye drops after insulin; for effect on ocular glucagon absorption / blood D-glucose: eye drops, 0.5% surfactant plus glucagon (30 μg)
[4] = cited from earlier work
[5] = Buccal fast-dispersing melatonin tablets in rabbits; details: for bioavailability: fast-disintegrating tablet, buccal
Experimental: Thereafter, the animals return to consciousness. At individual time point over a two hour period, 1 mL blood samples are collected from the central ear artery. […] All samples are stored at −70 °C until assaying for melatonin. Melatonin is measured using a commercial ELISA kit manufactured by GenWay Biotech Inc., San Diego, CA.

blood glucose [6] = experiment: Intranasal insulin with/without […] TDM, anesthesia-induced hyperglycemia model; assay type: in vivo, mouse
Description: Intranasal administration of drugs or agents are possible in animal models e.g., mice and rats, although the nasal opening in is very small. […] Hyperglycemic animals were induced by an intraperitoneal (IP) injection containing xylazine-ketamine and blood glucose levels were monitored over a period of time.

[7] = insulin alone intranasal, minus TDM

Molecule: C[C@@H](O)[C@@H]1NC(=O)[C@H](CCCCN)NC(=O)[C@@H](Cc2c[nH]c3ccccc23)NC(=O)[C@H](Cc2ccccc2)NC(=O)[C@@H](NC(=O)[C@H](N)Cc2ccccc2)CSSC[C@@H](C(=O)N[C@H](CO)[C@@H](C)O)NC1=O (relative stereo) [Octreotide, L-Cysteinamide, D-phenylalanyl-L-cysteinyl-L-phenylalanyl-D-tryptophyl-L-lysyl-L-threonyl-N-[2-hydroxy-1-(hydroxymethyl)propyl]-, cyclic (2→7)-disulfide; [R—(R*, R*)]acetate salt]
- CL/F ([1]; mouse, in vivo, 1 mg/kg, oral 3.0% DDM): 54900 mL/min
- CL/F ([1]; mouse, in vivo, 1 mg/kg, oral […] DDM): 28400 mL/min
- half-life ([1]; mouse, in vivo, sc, 1 mg/kg): 41.2 min
- t1/2 1 ([1]; oral 0.5% DDM, 1 mg/kg): 1.56 min
- t1/2 2 ([1]; oral 0.5% DDM, 1 mg/kg): 52.50 min
- AUC1 ([1]; oral 0.5% DDM, 1 mg/kg): 353.03 ng/mL/min
- AUC2 ([1]; oral 0.5% DDM, 1 mg/kg): 901.04 ng/mL/min
- t1/2 ([1]; oral 0.5% DDM, 1 mg/kg): 52.1 min
- t1/2 ([1]; oral 0.5% DDM, 1 mg/kg, listed as octreotide): 53.1 min and 52.1 min
- Cmax1 higher than Cmax2 ([1]; oral 0.5% Intravail): more than 2 fold
- t1/2 1 ([1]; oral 3.0% DDM, 1 mg/kg): 1.33 min
- t1/2 2 ([1]; oral 3.0% DDM, 1 mg/kg): 22.28 min
- AUC1 ([1]; oral 3.0% DDM, 1 mg/kg): 21.50 ng/mL/min
- AUC2 ([1]; oral 3.0% DDM, 1 mg/kg): 119.74 ng/mL/min
- t1/2 ([1]; oral 3.0% DDM, 1 mg/kg): 23.6 min
- t1/2 1 ([1]; oral […] DDM, 1 mg/kg): 0.96 min
- AUC1 ([1]; oral […] DDM, 1 mg/kg): 97.80 ng/mL/min
- AUC2 ([1]; oral […] DDM, 1 mg/kg): 132.90 ng/mL/min
- t1/2 ([1]; oral […] DDM, 1 mg/kg): 25.8 min
- t1/2 1 ([1]; s.c., 1 mg/kg): 2.04 min
- t1/2 2 ([1]; s.c., 1 mg/kg): 39.15 min
- AUC1 ([1]; s.c., 1 mg/kg): 38.39 ng/mL/min
- AUC2 ([1]; s.c., 1 mg/kg): 251.73 ng/mL/min

Molecule: CCCCCCCCCCO[C@@H]1O[C@H](CO)[C@@H](O[C@H]2O[C@H](CO)[C@@H](O)[C@H](O)[C@H]2O)[C@H](O)[C@H]1O [Decyl Maltoside, decyl-β-D-maltoside]
- effect on blood glucose / ocular insulin absorption (blood glucose [2]): maintained in the normoglycemic (80-120 mg/dl) or near-normoglycemic (120-160 mg/dl) range
- Blood Glucose Concentration (blood glucose [2]; 80 min): 110 mg/dL
- Blood Glucose Concentration (blood glucose [2]; 90 min): 120 mg/dL
- Blood Glucose Concentration (blood glucose [2]; 100 min): 92 mg/dL
- Blood Glucose Concentration (blood glucose [2]; 110 min): 81 mg/dL
- Blood Glucose Concentration (blood glucose [2]; 120 min): 87 mg/dL
- effect on ocular insulin absorption (alkyl chain length comparison) (blood glucose [2]): less absorption enhancing activity
- Blood Glucose Concentration (blood glucose [3]; 130 min): 95 mg/dL
- Blood Glucose Concentration (blood glucose [3]; 140 min): 99 mg/dL
- Blood Glucose Concentration (blood glucose [3]; 180 min): 180 mg/dL
- effect on ocular glucagon absorption / blood D-glucose (blood glucose [3]): increase significantly

Molecule: CCCCCCCCCCCCCO[C@@H]1O[C@H](CO)[C@@H](O[C@H]2O[C@H](CO)[C@@H](O)[C@H](O)[C@H]2O)[C@H](O)[C@H]1O [Tridecyl Maltoside, tridecyl-β-D-maltoside]
- effect on blood glucose / ocular insulin absorption (blood glucose [2]): effective as absorption enhancers
- Blood Glucose Concentration (blood glucose [2]; 40 min): 100 mg/dL
- Blood Glucose Concentration (blood glucose [2]; 50 min): 87 mg/dL
- Blood Glucose Concentration (blood glucose [2]; 80 min): 79 mg/dL
- Blood Glucose Concentration (blood glucose [2]; 90 min): 85 mg/dL
- Blood Glucose Concentration (blood glucose [2]; 100 min): 76 mg/dL
- Blood Glucose Concentration (blood glucose [2]; 110 min): 74 mg/dL
- Blood Glucose Concentration (blood glucose [2]; 120 min): 75 mg/dL
- effect on ocular insulin absorption (blood glucose [2]; […] enhancer with insulin eye drops): sustained for the two hour time course of the experiment
- effect on ocular insulin absorption (alkyl chain length comparison) (blood glucose [2]): more effective
- Blood Glucose Concentration (blood glucose [3]; 130 min): 82 mg/dL
- effect on ocular glucagon absorption / blood D-glucose (blood glucose [3]): increase significantly

Molecule: CCCCCCCOC1O[C@H](CO)[C@@H](O)[C@H](O)[C@H]1O (stereo partly drawn) [heptylglucoside, heptylglucopyranoside]
- effect on blood glucose / ocular insulin absorption (blood glucose [2]): ineffective

Molecule: CCCCCCOC1O[C@H](CO)[C@@H](O)[C@H](O)[C@H]1O (stereo partly drawn) [hexylglucoside, Hexylglucopyranoside]
- effect on blood glucose / ocular insulin absorption (blood glucose [2]): ineffective

Molecule: COc1ccc2[nH]cc(CCNC(C)=O)c2c1 [melatonin, 5-methoxy-N-acetyltryptamine]
- mean elimination half-life ([4]; human, in vivo): roughly 45 minutes
- absolute bioavailability ([4]; oral tablets, normal healthy volunteers (DeMuro et al.)): approximately 15%
- oral bioavailability (estimated) ([4]; oral): 30-50%
- bioavailability ([5]; with 1% to 2% alkylsaccharide): at least 75%
- bioavailability ([5]; without alkylsaccharide): less than 50%
- time to maximal concentration vs tablets without alkylsaccharide ([5]; with alkylsaccharide): approximately one half the time

Molecule: CCCCCCCCCOC1O[C@H](CO)[C@@H](O)[C@H](O)[C@H]1O (stereo partly drawn) [nonylglucoside, nonylglucopyranoside]
- effect on blood glucose / ocular insulin absorption (blood glucose [2]): effectively stimulated insulin absorption
- Blood Glucose (blood glucose [2]; insulin eye drops + 0.5%, reduced level, time not given): 150 mg/dL
- Blood Glucose (blood glucose [2]; insulin eye drops + 0.5%, starting level): 297 mg/dL

Molecule: CCCCCCCCO[C@@H]1O[C@H](CO)[C@@H](O[C@H]2O[C@H](CO)[C@@H](O)[C@H](O)[C@H]2O)[C@H](O)[C@H]1O [octyl maltoside, Octyl-β-D-maltoside]
- effect on ocular insulin absorption (alkyl chain length comparison) (blood glucose [2]): less absorption enhancing activity

Molecule: decylsucrose
- Blood Glucose (blood glucose [2]; insulin eye drops + 0.5%, 120 min): 164 mg/dL
- Blood Glucose (blood glucose [2]; insulin eye drops + 0.5%, time 0): 313 mg/dL

Molecule: dodecylsucrose [Dodecyl Sucrose]
- Blood Glucose Concentration (blood glucose [2]; 40 min): 120 mg/dL
- Blood Glucose Concentration (blood glucose [2]; 90 min): 86 mg/dL
- Blood Glucose (blood glucose [2]; insulin eye drops + […], 120 min): 150 mg/dL
- Blood Glucose (blood glucose [2]; insulin eye drops + […], time 0): 335 mg/dL
- Blood Glucose Concentration (blood glucose [3]; 130 min): 111 mg/dL
- Blood Glucose Concentration (blood glucose [3]; 140 min): 143 mg/dL
- Blood Glucose Concentration (blood glucose [3]; 150 min): 202 mg/dL
- Blood Glucose Concentration (blood glucose [3]; 160 min): 247 mg/dL
- Blood Glucose Concentration (blood glucose [3]; 170 min): 242 mg/dL
- Blood Glucose Concentration (blood glucose [3]; 180 min): 234 mg/dL
- Blood Glucose Concentration (blood glucose [3]; 190 min): 211 mg/dL
- effect on ocular glucagon absorption / blood D-glucose (blood glucose [3]): increase significantly

Molecule: insulin (Humalog)
- lowest blood glucose level (blood glucose [6]; insulin + […] TDM intranasal, about 60 minute time point (about 30 min after insulin)): about 80 mg/dl
- blood glucose level (blood glucose [6]; insulin + […] TDM intranasal, from about 75 minute time point): 80 to 100 mg/dL

Molecule: insulin: insulin
- return of blood glucose to normoglycemic levels (blood glucose [6]; [7]): never return to normoglycemic levels
- time after insulin administration at which blood glucose starts to decline (blood glucose [6]; [7]): about 110 minutes
- time mark at which blood glucose starts to decline (blood glucose [6]; [7]): ~120 min

Molecule: regular porcine insulin
- effect on blood D-glucose (blood glucose [2]; 0.2% in saline only, no enhancer, eye drops): remained elevated
